In PubChem BioAssay AID256 (DTP/NCI, 2004):
Several values for one entry are separate records, joined by “and”; a condition that tells them apart may be missing. Equal entries are not always repeated. Inconclusive results and toxic doses are left out.

System: CD2F1 mice, L1210 leukemia ip, survival T/C
Experiment: NCI In Vivo Anticancer Drug Screen. Data for tumor model L1210 Leukemia (intraperitoneal) in CD2F1 (CDF1) mice
Settings: endpoint: mean survival time, higher = longer survival
How it was run: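 Antitumor effect is scored in animals hosting a serially transplanted tumor. Values compare compound-dosed animals against vehicle-only controls as a simple quotient.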

[1] = dose: 100.0 mg/kg/injection, schedule: Q01DX009 (ip), vehicle: saline with Tween-80
[2] = dose: 200.0 mg/kg/injection, schedule: Q01DX009 (ip), vehicle: saline with Tween-80
[3] = dose: 400.0 mg/kg/injection, schedule: Q01DX009 (ip), vehicle: saline with Tween-80
[4] = dose: 100.0 mg/kg/injection, schedule: Q01DX009 (ip), vehicle: saline sonified
[5] = dose: 100.0 mg/kg/injection, schedule: Q04DX003 (ip), vehicle: saline with Tween-80
[6] = dose: 200.0 mg/kg/injection, schedule: Q01DX009 (ip), vehicle: saline sonified
[7] = dose: 200.0 mg/kg/injection, schedule: Q04DX003 (ip), vehicle: saline with Tween-80
[8] = dose: 100.0 mg/kg/injection, schedule: Q01DX001 (ip), vehicle: saline with Tween-80
[9] = dose: 200.0 mg/kg/injection, schedule: Q01DX001 (ip), vehicle: saline with Tween-80
[10] = dose: 400.0 mg/kg/injection, schedule: Q01DX001 (ip), vehicle: saline with Tween-80
[11] = dose: 50.0 mg/kg/injection, schedule: Q04DX003 (ip), vehicle: saline with Tween-80
[12] = dose: 100.0 mg/kg/injection, schedule: Q04DX002 (ip), vehicle: saline with Tween-80
[13] = dose: 200.0 mg/kg/injection, schedule: Q04DX002 (ip), vehicle: saline with Tween-80
[14] = dose: 400.0 mg/kg/injection, schedule: Q04DX002 (ip), vehicle: saline with Tween-80
[15] = dose: 400.0 mg/kg/injection, schedule: Q04DX003 (ip), vehicle: saline with Tween-80
[16] = dose: 100.0 mg/kg/injection, schedule: Q01DX001 (ip), vehicle: saline
[17] = dose: 75.0 mg/kg/injection, schedule: Q04DX003 (ip), vehicle: saline

For `CC1(CCOC2CCCCO2)NC(=O)NC1=O` (centres undefined), which T/C (dose: 100.0 mg/kg/injection, schedule: Q01DX001 (ip), vehicle: saline sonified) is on record?
Its T/C is 102 % of control.

What about the T/C [1] of the same compound?
Its T/C is 112 % of control.

And the T/C (dose: 200.0 mg/kg/injection, schedule: Q01DX001 (ip), vehicle: saline sonified)?
The T/C was 100 % of control.

And the T/C [2]?
Its T/C is 103 % of control.

And the T/C (dose: 400.0 mg/kg/injection, schedule: Q01DX001 (ip), vehicle: saline sonified)?
Its T/C is 100 % of control.

What about the T/C [3] of the same compound?
Its T/C is 103 % of control.

For `ClC1(Cl)C2CCCCC21` (centres undefined), which T/C (dose: 50.0 mg/kg/injection, schedule: Q01DX009 (ip), vehicle: saline sonified) is on record?
Its T/C is 98 % of control.

And the T/C [4]?
Its T/C is 98 % of control.

What about the T/C [5] of the same compound?
Its T/C is 98 % of control.

What about the T/C [6] of the same compound?
The T/C was 97 % of control.

And the T/C [7]?
The T/C was 97 % of control.

`CSc1nc2cc(C)c(C)cc2[nH]1` was tested. Which T/C [8] did it give?
The T/C was 103 % of control.

And the T/C [1]?
The T/C was 97 % of control.

And the T/C [9]?
The T/C was 97 % of control.

And the T/C [2]?
Its T/C is 97 % of control.

What about the T/C [10] of the same compound?
The T/C was 105 % of control.

And the T/C [3]?
Its T/C is 94 % of control.

What does the source list for `CCCCCCCCCCCC(=O)NC(=S)Nc1cc(Cl)ccc1Cl`?
T/C (dose: 50.0 mg/kg/injection, schedule: Q01DX001 (ip), vehicle: saline with Tween-80): 89 % of control; T/C [11]: 92 % of control; T/C [8]: 89 % of control; T/C [1]: 86 % of control and 94 % of control; T/C [12]: 98 % of control; T/C [5]: 92 % of control; T/C [9]: 92 % of control; T/C [2]: 86 % of control and 92 % of control; T/C [13]: 98 % of control; T/C [14]: 98 % of control; T/C [15]: 86 % of control

What does the source list for `CCCCOC(=O)c1n[nH]c(C)c1N=NN1CCOCC1`?
T/C (dose: 75.0 mg/kg/injection, schedule: Q01DX001 (ip), vehicle: other): 105 % of control; T/C (dose: 150.0 mg/kg/injection, schedule: Q01DX001 (ip), vehicle: other): 97 % of control; T/C (dose: 300.0 mg/kg/injection, schedule: Q01DX001 (ip), vehicle: other): 103 % of control

Which T/C [16] does the source give for `CCCN1CCc2cc3c(cc2C1)OCO3` here?
The T/C was 100 % of control.

What does the source list for `CC(=O)Nc1sc([N+](=O)[O-])cc1[N+](=O)[O-]`?
T/C (dose: 25.0 mg/kg/injection, schedule: Q04DX003 (ip), vehicle: saline with Tween-80): 101 % of control; T/C [11]: 108 % of control; T/C [5]: 91 % of control and 101 % of control

Which T/C [5] does the source give for `Oc1c(Br)cc(Br)c(O)c1Br` here?
The T/C was 97 % of control.

What about the T/C [7] of the same compound?
Its T/C is 95 % of control.

Which T/C (dose: 100.0 mg/kg/injection, schedule: Q04DX003 (ip), vehicle: Klucel (hydroxypropylcellulose) (HPC)) does the source give for `Clc1ccc(NC2=NCCO2)cc1` here?
The T/C was 94 % of control.

How did the T/C (dose: 18.8 mg/kg/injection, schedule: Q01DX009 (ip), vehicle: saline) turn out when `O=C(O)c1cc2ccc(Cl)cc2c2cc(C(F)(F)F)ccc12` was run?
The T/C was 97 % of control.

What about the T/C (dose: 37.5 mg/kg/injection, schedule: Q01DX009 (ip), vehicle: saline) of the same compound?
Its T/C is 111 % of control.

And the T/C [17]?
The T/C was 95 % of control.

What does the source list for `Nc1nccc2c1nnn2C1OC(CO)C(O)C1O` (centres undefined)?
T/C (dose: 12.5 mg/kg/injection, schedule: Q01DX005 (ip), vehicle: water): 102 % of control; T/C (dose: 25.0 mg/kg/injection, schedule: Q01DX005 (ip), vehicle: water): 104 % of control; T/C (dose: 50.0 mg/kg/injection, schedule: Q01DX005 (ip), vehicle: water): 96 % of control; T/C (dose: 100.0 mg/kg/injection, schedule: Q01DX005 (ip), vehicle: water): 102 % of control; T/C (dose: 200.0 mg/kg/injection, schedule: Q01DX005 (ip), vehicle: water): 106 % of control

How did the T/C (dose: 50.0 mg/kg/injection, schedule: Q01DX009 (ip), vehicle: saline with Tween-80) turn out when `C/C(=C/C(C)(C)C)C1CCCCC1C` (centres undefined) was run?
The T/C was 100 % of control.

And the T/C [1]?
Its T/C is 100 % of control.

What about the T/C [2] of the same compound?
Its T/C is 116 % of control.

Which results are given for `O=C(O)CN1C(=O)CNC12CCCCC2`?
T/C (dose: 100.0 mg/kg/injection, schedule: Q04DX003 (ip), vehicle: other): 102 % of control; T/C (dose: 200.0 mg/kg/injection, schedule: Q04DX003 (ip), vehicle: other): 88 % of control; T/C (dose: 400.0 mg/kg/injection, schedule: Q04DX003 (ip), vehicle: other): 104 % of control

How did the T/C (dose: 37.5 mg/kg/injection, schedule: Q01DX009 (ip), vehicle: Klucel (hydroxypropylcellulose) (HPC)) turn out when `CN(C)N=Nc1ccccc1` was run?
Its T/C is 158 % of control.

And the T/C (dose: 75.0 mg/kg/injection, schedule: Q01DX009 (ip), vehicle: Klucel (hydroxypropylcellulose) (HPC))?
The T/C was 106 % of control.

With `N#C[S-].N#C[S-].[NH-]CC[NH-].[Pt+4]` as the compound, how does the T/C (dose: 10.0 mg/kg/injection, schedule: Q04DX003 (ip), vehicle: saline with Tween-80) read?
The T/C was 97 % of control.

And the T/C (dose: 20.0 mg/kg/injection, schedule: Q04DX003 (ip), vehicle: saline with Tween-80)?
Its T/C is 98 % of control.

What about the T/C (dose: 40.0 mg/kg/injection, schedule: Q04DX003 (ip), vehicle: saline with Tween-80) of the same compound?
The T/C was 106 % of control.

Which T/C (dose: 12.5 mg/kg/injection, schedule: Q01DX009 (ip), vehicle: acetone) does the source give for `CC1CCN1Cc1ccccc1` (centres undefined) here?
The T/C was 98 % of control.

And the T/C (dose: 25.0 mg/kg/injection, schedule: Q01DX009 (ip), vehicle: acetone)?
Its T/C is 98 % of control.

What about the T/C (dose: 50.0 mg/kg/injection, schedule: Q01DX009 (ip), vehicle: acetone) of the same compound?
The T/C was 95 % of control.

How did the T/C [4] turn out when `CN(C)C(=O)c1cccc(COc2ccc([N+](=O)[O-])cc2Cl)c1` was run?
Its T/C is 102 % of control.

What about the T/C [5] of the same compound?
The T/C was 101 % of control.

And the T/C [6]?
The T/C was 98 % of control.

And the T/C [7]?
Its T/C is 103 % of control.

What about the T/C [15] of the same compound?
Its T/C is 95 % of control.

For `CC(O)c1cc2ccccc2n1C` (centres undefined), which T/C [8] is on record?
The T/C was 98 % of control.

And the T/C [9]?
Its T/C is 103 % of control.

And the T/C [10]?
Its T/C is 101 % of control.

What does the source list for `O=P(OCCCCl)(OCCCCl)C(Cl)Cl`?
T/C [16]: 102 % of control; T/C (dose: 200.0 mg/kg/injection, schedule: Q01DX001 (ip), vehicle: saline): 102 % of control; T/C (dose: 400.0 mg/kg/injection, schedule: Q01DX001 (ip), vehicle: saline): 103 % of control

Which T/C [12] does the source give for `CCOC(=O)c1c(C)c2c(n1C)CCCC2=O` here?
Its T/C is 93 % of control.

What about the T/C [13] of the same compound?
The T/C was 89 % of control.

What about the T/C [14] of the same compound?
The T/C was 86 % of control.

With `O=C1C(c2ccccc2)=C(c2ccccc2)c2c(-c3ccccc3)ccc(-c3ccccc3)c21` as the compound, how does the T/C [5] read?
The T/C was 89 % of control.

And the T/C [7]?
Its T/C is 100 % of control.

And the T/C [15]?
The T/C was 94 % of control.

Which results are given for `CCOC(=O)C1=C(C#N)C2(CCC(OCc3ccccc3)CC2)C(=O)O1` (centres undefined)?
T/C (dose: 12.5 mg/kg/injection, schedule: Q01DX009 (ip), vehicle: saline): 95 % of control; T/C (dose: 12.5 mg/kg/injection, schedule: Q01DX009 (ip), vehicle: suspension in saline): 106 % of control; T/C (dose: 25.0 mg/kg/injection, schedule: Q01DX009 (ip), vehicle: saline): 100 % of control; T/C (dose: 25.0 mg/kg/injection, schedule: Q01DX009 (ip), vehicle: suspension in saline): 106 % of control; T/C (dose: 50.0 mg/kg/injection, schedule: Q01DX009 (ip), vehicle: saline): 107 % of control; T/C (dose: 50.0 mg/kg/injection, schedule: Q01DX009 (ip), vehicle: suspension in saline): 108 % of control; T/C (dose: 100.0 mg/kg/injection, schedule: Q01DX009 (ip), vehicle: saline): 106 % of control; T/C (dose: 100.0 mg/kg/injection, schedule: Q01DX009 (ip), vehicle: suspension in saline): 106 % of control; T/C (dose: 200.0 mg/kg/injection, schedule: Q01DX009 (ip), vehicle: saline): 106 % of control; T/C (dose: 200.0 mg/kg/injection, schedule: Q01DX009 (ip), vehicle: suspension in saline): 100 % of control; T/C (dose: 400.0 mg/kg/injection, schedule: Q01DX009 (ip), vehicle: suspension in saline): 108 % of control

How did the T/C [5] turn out when `Cc1cccc(C)c1NC(=S)N1CCC(CCCC2CCN(C(=S)Nc3c(C)cccc3C)CC2)CC1` was run?
The T/C was 105 % of control.

And the T/C [7]?
Its T/C is 96 % of control.

And the T/C [15]?
The T/C was 96 % of control.

What does the source list for `C#CCCCCCC#[C][Hg][C]#CCCCCCC#C.C#CCCCCCC#[C][Hg][C]#CCCCCCC#C`?
T/C [17]: 91 % of control; T/C (dose: 150.0 mg/kg/injection, schedule: Q01DX009 (ip), vehicle: saline): 91 % of control; T/C (dose: 150.0 mg/kg/injection, schedule: Q04DX003 (ip), vehicle: saline): 94 % of control; T/C (dose: 300.0 mg/kg/injection, schedule: Q04DX003 (ip), vehicle: saline): 94 % of control

With `CN1CCCCCC1` as the compound, how does the T/C [5] read?
Its T/C is 100 % of control.

And the T/C [7]?
Its T/C is 111 % of control.

With `CCC1CC(=O)C2Nc3ccccc3C2C1` (centres undefined) as the compound, how does the T/C [8] read?
Its T/C is 88 % of control.

And the T/C [10]?
Its T/C is 86 % of control.
